{"source": "ChEMBL document CHEMBL1201862", "about": "“PubChem BioAssay data set” (2004)", "key": {"[1]": {"assay": "viability of uninfected HEp-2 cells – cell-based, HTS, cytotoxicity control for RSV inhibitor project, dose response (AID 2410)", "assay_type": "functional", "details": "human respiratory syncytial virus"}, "Vero": {"system": "Vero", "assay": "cells", "assay_type": "functional, cell-based", "details": "Chlorocebus sabaeus"}, "[2]": {"assay": "decrease of insulin promoter-GFP reporter – imaging, high-content screening, mouse beta cells (AID 1628)", "assay_type": "functional", "details": "MIN6"}, "[3]": {"assay": "MIN6 cell viability loss – mouse insulinoma, cytotoxicity control, dose response (AID 2122);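 further: confirmatory high-throughput counterscreen run to flag cytotoxic compounds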", "assay_type": "functional"}, "HEK293 [4]": {"system": "HEK293", "assay": "cells", "details": "Homo sapiens"}, "HEK293 [5]": {"system": "HEK293", "assay": "cells", "details": "Homo sapiens", "remark": "listed apart in the source"}}, "note": "Activity calls are given as the source filed them."}
{"smiles": "Cc1cc(C(C)(C)C)cc(C)c1CCNC(=O)c1ccc[n+]([O-])c1", "values": [{"measurement": "CC50", "setting": "[1]", "value": "38.3 µM (active)"}, {"measurement": "IC50", "setting": "Vero", "value": "> 25 µM (active)"}, {"measurement": "IC50", "setting": "cells", "value": "38 µM (active)"}]}
{"smiles": "Oc1nc(SCc2nc(O)c3cnn(-c4ccccc4)c3n2)nc2ccccc12", "values": [{"measurement": "IC50", "setting": "Vero", "value": "1.08 µM (active)"}]}
{"smiles": "Cc1cc(NC(=O)CCc2ccc(S(=O)(=O)N3CCOCC3)cc2)n(-c2ccccc2)n1", "values": [{"measurement": "IC50", "setting": "[2]", "value": "2 µM (active)"}, {"measurement": "IC50", "setting": "[3]", "value": "1.53 µM (active)"}]}
{"smiles": "CC(C)(C)N1C(=O)[C@H]2[C@@H](c3ccc(Br)cc3)N3C(=O)N(c4ccccc4)C(=O)[C@@]3(Cc3ccccc3)[C@H]2C1=O", "values": [{"measurement": "EC50", "setting": "HEK293 [4]", "value": "> 59.6 µM (inactive)"}, {"measurement": "EC50", "setting": "HEK293 [5]", "value": "> 59.6 µM (inactive)"}]}
